Here are results for 5 molecules from paper PMC8404199, “Structure–Activity Relationships of Triple-Action Platinum(IV) Prodrugs with Albumin-Binding Properties and Immunomodulating Ligands” (Journal of Medicinal Chemistry, 2021).

Data set [1] relates to CT26 colon cancer allografts. The data set is described as follows: Anticancer activity against CT26 allografts in Balb/c mice. In kind it is in vivo. To be noted: iv, equimolar to 9 mg/kg oxaliplatin; for anticancer activity against CT26 tumors (in words): twice a week for 2 weeks. As for the experimental part: Every day, the animals were monitored for body weight and the enhanced stress level, and the tumor size was measured using a caliper according to the formula length × width^2/2.

Data set [2] can be described thus: Organ distribution of platinum in SKOV3-bearing SCID mice. To be noted: 24 h after single iv dose equimolar to 9 mg/kg oxaliplatin.
Protocol: For tissue digestion, approx. 25–50 mg of tissue was weighed into perfluoralkoxy tubes, and 2 mL of HNO3 and 100 μL H2O2 (30%, Suprapur, Merck, Darmstadt, Germany) were added. The solutions were placed on a hot plate and heated up for 7 h using a temperature program with a maximum of 200 °C. The liquids were transferred to 15 mL tubes with the remaining solution being removed by washing twice with 4 mL of ultrapure water.
Platinum concentrations were measured using an Agilent 7800 ICP-QMS instrument (Agilent Technologies, Tokyo, Japan) equipped with an Agilent SPS 4 autosampler (Agilent Technologies, Tokyo, Japan) and a MicroMist nebulizer at a sample uptake rate of approx. 0.2 mL/min. […] All of the measured samples were blank corrected (for the cell culture data, wells containing no cells were used). Elemental standard solutions were purchased from Labkings (Hilversum, The Netherlands). The instrument was tuned on a daily basis.
SKOV3 cells (1.5 × 10^6 cells in 50 μL serum-free medium) were injected subcutaneously into the right flank of male SCID mice. […] Then, the animals were sacrificed by cervical dislocation, and tumors and organs were collected for the measurement with ICP–MS. For plasma isolation, blood was collected in ethylenediaminetetraacetic acid (EDTA)-coated tubes and centrifuged for 10 min at 900g at 4 °C. Plasma was transferred to a new tube and centrifuged once more to remove residual red blood cells.
In data set [3] the test system is murine CT26 colon cancer cells. The data set is described as follows: MTT cytotoxicity assay in CT26 cells. In kind it is cell-based. The method, then: (§1) Cells were additionally incubated with 5-fold equimolar concentrations of ascorbic acid to increase the reduction rate of the compounds. Cell viability was measured by the MTT-based vitality assay (EZ4U; Biomedica, Vienna, Austria), following the manufacturer’s recommendations.

In data set [4] the test system is human HCT116 colon cancer cells. The data set is described as follows: MTT cytotoxicity assay in HCT116 cells. Format: cell-based. As for the experimental part:
as §1
For orientation: Tetrazolium dyes change colour on reduction, which living cells bring about.

In data set [5] the test system is human embryonic kidney cells (HEK293). The data set is described as follows: MTT cytotoxicity assay in non-malignant HEK293 cells. Format: cell-based. The note with it: 72 h. As for the experimental part:
(§2) The cells were seeded at 3500–6000 cells/well in 96-well plates depending on the proliferation rate of the respective cell line and allowed to recover for 24 h. Subsequently, the cells were treated at indicated concentrations for 48 or 72 h. Cells were additionally incubated with 5-fold equimolar concentrations of ascorbic acid to increase the reduction rate of the compounds. Cell viability was measured by the MTT-based vitality assay (EZ4U; Biomedica, Vienna, Austria), following the manufacturer’s recommendations.

Data set [6] relates to human hepatic cell line (WRL68). The experiment in a line: MTT cytotoxicity assay in non-malignant WRL68 cells. In kind it is cell-based. To be noted: 72 h. As for the experimental part:
as §2

Data set [7] concerns VM7 melanoma cancer cells. The data set is described as follows: MTT cytotoxicity assay in VM7 cells. To be noted: 72 h. Format: cell-based, human. As for the experimental part: as §2
A further data set has as its system human SKOV3 cancer cells. The experiment in a line: MTT cytotoxicity assay in SKOV3 cells. The note with it: 72 h incubation. In kind it is cell-based. The method, then: as §2
Another data set concerns SKOV3 cancer cells. The data set is described as follows: Long-term cytotoxicity assay (crystal violet) in SKOV3 cells. Format: cell-based, human. The note with it: 168 h, crystal violet stain, mean ± SD. The method, then: SKOV3 cells were seeded in duplicates at 5000 cells/well in 24-well plates and allowed to recover for 24 h. Subsequently, the cells were treated at the indicated concentrations for 168 h. Cells were fixed with ice-cold methanol (20 min at 4 °C), washed with PBS, and stained with crystal violet. Subsequently, colony formation was inspected, and the fluorescence signal was detected using Typhoon Trio imager (GE Healthcare, Little Chalfont, UK) at 610/30 nm BP and analyzed by ImageJ software.

Data set [8] is described as follows: log D7.4 determination by shake flask method and ICP-MS. In kind it is physicochemical. To be noted: n-octanol/phosphate buffer pH 7.4, Pt by ICP-MS. As for the experimental part:
50 mM stock solutions of the succinimide complexes in DMF were diluted in phosphate buffer (20 mM, pH 7.4, pre-saturated with n-octanol) to a final concentration of 50 μM drug and 0.1% DMF. The platinum content of these aqueous solutions was measured by ICP–MS (see above). The solutions were mixed 1:1 with n-octanol and shaken on a 360° rotatable rack for 3 h. The solutions were centrifuged for 5 min (860g, RT), the aqueous layers were carefully removed, and their Pt content was measured by ICP–MS. Experiments were performed and measured in duplicates, and averages were used for further calculations. log D7.4 values were calculated by the following equation [drawing 1]

Data set [9] in a line: UHPLC reduction experiments with L-ascorbic acid. Format: physicochemical. To be noted: 1 mM complex, 10-fold excess AA, phosphate buffer pH 7.4, 1% DMF, 20 °C. The method, then: The platinum(IV)–succinimide complexes were dissolved in 2% DMF in phosphate buffer (500 mM, pH 7.4) to a final concentration of 2 mM. The solutions were then mixed 1:1 with a 20 mM stock of L-ascorbic acid in phosphate buffer (500 mM, pH 7.4) to obtain final concentrations of 1 mM complex, 10 mM L-ascorbic acid, and 1% DMF. The samples were incubated at 20 °C and measured on a Dionex UltiMate 3000 RS UPLC system with a Waters Acquity UPLC BEH C18 column (3 × 50 mm, pore size 1.7 μm) and absorption detection at 220 nm. Data points were taken at t = 0 and every 30 min for 6 h.

Another data set deals with T1, albumin (Bos taurus, UniProt P02769).
T1 construct: FCS was purchased from Sigma-Aldrich and buffered with 150 mM phosphate buffer (pH 7.4); tissue Sigma-Aldrich; host or cells: fetal calf serum
The experiment in a line: SEC-ICP-MS albumin binding and serum stability in fetal calf serum. In kind it is in vitro ADME. The note with it: FCS + 150 mM phosphate buffer pH 7.4, 37 °C. The method, then: FCS was purchased from Sigma-Aldrich and buffered with 150 mM phosphate buffer (pH 7.4) to guarantee a stable pH. The maleimide-bearing platinum(IV) complexes were dissolved in 10% DMF in 150 mM phosphate buffer (pH 7.4) to 1 mM and diluted 1:10 in serum to obtain a final concentration of 100 μM. The samples were then incubated in the autosampler at 37 °C for 24 h and analyzed every 1 h. Between each sample, a pure water blank was measured. For SEC–ICP–MS measurements, an Agilent 1260 Infinity system coupled to an Agilent 7800 ICP–MS equipped with a dynamic reaction cell was used. Oxygen (purity 5.5, Messer Austria GmbH, Gumpoldskirchen, Austria) was used as reaction gas.

The subject of a further data set is SKOV3 cell lysates. The data set is described as follows: Reduction and 1-MDT release in SKOV3 lysates. To be noted: 100 μM, 37 °C. In kind it is in vitro ADME, human. The method, then: SKOV3 cells were grown in four T225 […] cell culture flasks to reach a high cell number. On the day of cell lysate isolation, cells were washed with PBS, scraped from the surface, and centrifuged. Each cell pellet was lysed in ∼160 μL lysis buffer (15 mM NaCl 0.5% Triton X, ultrapure) and incubated on ice for 1 h. The samples were then centrifuged for 15 min at 14,000 rpm (4 °C), and the cleared lysate was pooled and kept at −80 °C until analysis. Cell lysates were treated with 2 mM stock solutions of respective complexes in 4% DMF and phosphate buffer (100 mM, pH 7.4) to obtain a final compound concentration of 100 μM and incubated at 37 °C. After 0, 4, 24, and 72 h, three volume equivalents of cold MeOH were added to sample aliquots. Samples were stored at 4 °C for 10 min and centrifuged (15,080g, 4 °C, 10 min). LC–MS analysis of the supernatant was performed on an Agilent 1260 Infinity system using a Waters Atlantis T3 column (150 mm × 4.6 mm) and absorption detection at 230 nm, coupled to a Bruker amaZon SL ESI-IT mass spectrometer. Milli-Q water, containing 0.1% formic acid, and acetonitrile, containing 0.1% formic acid, were used as eluents. A gradient of 1–99% acetonitrile in 20 min was used.

Where [10] appears, read: 48 h incubation, with 5 equiv AA, read-out: CT26 IC50 values +AA, mean ± SD.
Setting [11] is: 48 h incubation, without AA, read-out: CT26 IC50 values, mean ± SD.
[12] abbreviates: 72 h incubation, with 5 eq. AA, read-out: CT26 IC50 values + 5 eq. AA, mean.
[13] abbreviates: 72 h incubation, without AA, read-out: CT26 IC50 values, mean.
[14] abbreviates: 48 h incubation, with 5 equiv AA, read-out: HCT116 IC50 values +AA, mean ± SD.
Where [15] appears, read: 48 h incubation, without AA, read-out: HCT116 IC50 values, mean ± SD.
[16] abbreviates: 72 h incubation, with 5 eq. AA, read-out: HCT116 IC50 values + 5 eq. AA, mean.
Where [17] appears, read: 72 h incubation, without AA, read-out: HCT116 IC50 values, mean.
The mark [18] stands for this setting: with 5 eq. AA, read-out: SKOV3 IC50 values + 5 eq. AA, mean.
Setting [19] is: without AA, read-out: SKOV3 IC50 values, mean.

Where two headings read alike, the source gives them in different places.

T1 sequence (P02769 25-607): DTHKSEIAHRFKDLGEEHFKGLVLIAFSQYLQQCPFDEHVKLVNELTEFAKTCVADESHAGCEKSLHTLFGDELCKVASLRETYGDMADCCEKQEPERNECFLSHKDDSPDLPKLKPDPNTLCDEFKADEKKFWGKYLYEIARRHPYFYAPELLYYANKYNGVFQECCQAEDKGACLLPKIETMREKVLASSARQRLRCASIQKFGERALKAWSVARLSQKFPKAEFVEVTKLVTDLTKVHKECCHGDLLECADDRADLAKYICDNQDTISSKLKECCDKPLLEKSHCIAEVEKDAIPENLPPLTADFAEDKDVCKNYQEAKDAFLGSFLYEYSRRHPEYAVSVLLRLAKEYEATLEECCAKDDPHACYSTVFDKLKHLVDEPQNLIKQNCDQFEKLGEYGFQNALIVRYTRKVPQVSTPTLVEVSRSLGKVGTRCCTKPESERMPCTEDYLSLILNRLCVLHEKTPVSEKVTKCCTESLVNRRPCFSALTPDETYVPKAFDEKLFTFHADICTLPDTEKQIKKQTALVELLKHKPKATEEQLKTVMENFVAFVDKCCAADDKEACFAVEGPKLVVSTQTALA

As for `Cn1cc(C[C@@H](NC(=O)[O][Pt]2([O]C(=O)NCCCCCN3C(=O)C=CC3=O)[O]C(=O)C(=O)[O]2)C(=O)O)c2ccccc21.N[C@@H]1CCCC[C@H]1N` [MalCa/IdoCa, (OC-6-24)-[(R)-(1-Carboxy-2-(1-methyl-1H-indol-3-yl)ethyl)carbamato][(1R,2R)-1,2-cyclohexanediamino][5-(2,5-dioxo-2,5-dihydro-1H-pyrrol-1-yl)pentylcarbamato]oxalatoplatinum(IV)], in [1], the “activity directly compared to oxaliplatin: tumor growth and overall survival” value is “superior to oxaliplatin”; the “anticancer activity against CT26 tumors (in words)” value is on record as “significant anticancer activity”. Further, the “platinum levels in blood plasma” value in data set [2] came out at 6.4 mg/kg. In addition, in data set [2] (ratio of mean platinum levels), the “Platinum ratio tumor:kidney” value was found to be 0.5 and the “Platinum ratio tumor:liver” value came to 0.5.
Take `Cn1cc(CC([NH3+])C(=O)[O][Pt]23([O]C(=O)CCCCCN4C(=O)C=CC4=O)([NH]C4CCCCC4[NH]2)[O]C(=O)C(=O)[O]3)c2ccccc21.O=C([O-])C(F)(F)F` [MalEs/IdoEs, (OC-6-44)-[(R)-2-Ammonio-3-(1-methyl-1H-indol-3-yl)propanoato][(1R,2R)-1,2-yclohexanediamino][6-(2,5-dioxo-2,5-dihydro-1H-pyrrol-1-yl)hexanoato]oxalatoplatinum(IV) Trifluoroacetate]: the “anticancer activity against CT26 tumors (in words)” value in [1] was “inactive”. Moreover, the “platinum levels in blood plasma” value in [2] is 3.7 mg/kg.
As usually defined, the IC50 is the concentration that gives 50% inhibition. Take `CC(=O)[O][Pt]1([O]C(C)=O)[O]C(=O)C(=O)[O]1.N[C@@H]1CCCC[C@H]1N` [OAc/OAc, reference compound]: the IC50 in data set [3] (setting [10]) came out at 22.6 ± 0.16 µM; in data set [3] (setting [11]), 25.7 ± 1.4 µM; in data set [3] (setting [12]), 33.5 µM; in data set [3] (setting [13]) it was 42.3 µM; in data set [4] (setting [14]) it was 20.1 ± 1.57 µM; in data set [4] (setting [15]) it was 26.6 ± 2.41 µM. For the same molecule, the IC50 was determined as 11.5 µM in [4] (setting [16]); 14.3 µM in [4] (setting [17]); 12.2 µM in data set [5]; 33.6 µM in data set [6]; 43.5 µM in data set [7].
As for `Cn1cc(CC(NC(=O)[O][Pt]23([O]C(=O)NCCCCCN4C(=O)CCC4=O)([NH]C4CCCCC4[NH]2)[O]C(=O)C(=O)[O]3)C(=O)O)c2ccccc21` [SucCa/IdoCa, (OC-6-24)-[(R)-(1-Carboxy-2-(1-methyl-1H-indol-3-yl)ethyl)carbamato][(1R,2R)-1,2-cyclohexanediamino][(5-(2,5-dioxopyrrolidin-1-yl)pentyl)carbamato]oxalatoplatinum(IV)], the results for the “ratio (IC50 without AA / with AA), CT26” value in data set [3] (48 h) and in data set [3] (72 h) were no less than 2.6 and 1.89, respectively. The IC50 in [3] (setting [10]) was 38.8 ± 3.84 µM; in data set [3] (setting [11]) it was greater than 100 µM; in [3] (setting [12]), 43.6 µM; in data set [3] (setting [13]) it was 82.5 µM; in data set [4] (setting [14]), 43.3 ± 2.1 µM; in [4] (setting [15]) it was greater than 100 µM. The half-inhibitory concentration (IC50) in data set [4] (setting [16]) is 24.7 µM; in data set [5] it was 81.2 µM; in data set [6] it was greater than 100 µM; with human SKOV3 cancer cells (setting [18]), greater than 100 µM; in the data set on human SKOV3 cancer cells (setting [19]) it was greater than 100 µM; in data set [7] it was greater than 100 µM. In the data set with SKOV3 cancer cells, the IC50 was 54.6 ± 14.1 µM. Besides, the “ratio (IC50 without AA / with AA), HCT116” value in [4] (48 h) was no less than 2.3; in data set [4] (72 h), no less than 4. For the same molecule, in data set [8], the “log D7.4” value is reported as “–1.49”. For the same molecule, the “complex intact after 6 h” value in [9] came out at 90%. In addition, the “albumin binding in serum (in words)” value on albumin was “significant binding to albumin (tR ~4 min) could be observed for any of the compounds”. Moreover, the “still present as platinum(IV) species after 72 h” value in the data set on SKOV3 cell lysates is roughly 50%.
In the case of `CC(=O)[O][Pt]1([O]C(=O)NCCCCCN2C(=O)CCC2=O)[O]C(=O)C(=O)[O]1.N[C@@H]1CCCC[C@H]1N` [SucCa/OAc, (OC-6-34)-Acetato[(1R,2R)-1,2-cyclohexanediamine]oxalato[(5-(2,5-dioxopyrrolidin-1-yl)pentyl)carbamato]platinum(IV)], the “ratio (IC50 without AA / with AA), CT26” value turned out to be 2.67 in data set [3] (48 h) and 1.37 in [3] (72 h). Further, the IC50 in data set [3] (setting [10]) was 28.2 ± 1.81 µM; in data set [3] (setting [11]), 75.21 ± 0.11 µM; in [3] (setting [12]), 40.4 µM; in data set [3] (setting [13]), 55.2 µM; in data set [4] (setting [14]), 34 ± 1.58 µM; in data set [4] (setting [15]) it was greater than 100 µM. The concentration for half-maximal inhibition (IC50) in data set [4] (setting [16]) is 21.8 µM; in [4] (setting [17]), 42 µM; in data set [5], 50.8 µM; in data set [6], greater than 100 µM; in the data set with human SKOV3 cancer cells (setting [18]) it was greater than 100 µM; in the data set on human SKOV3 cancer cells (setting [19]), greater than 100 µM. Moreover, the IC50 in [7] was greater than 100 µM; in the data set with SKOV3 cancer cells it was 29.7 ± 0.3 µM. Also, the “ratio (IC50 without AA / with AA), HCT116” value is listed as no less than 2.9 in data set [4] (48 h) and 1.93 in data set [4] (72 h).
